Experimental data taken from patent US20240366577A1, “CONTROLLED LONG-TERM DRUG DELIVERY AND METHODS THEREOF” (THE JOHNS HOPKINS UNIVERSITY, priority 2021, published 2024).

How the values were obtained:
[1] = crystal stability in aqueous solutions (brightfield microscopy); type: physicochemical; settings: 1-2 mg crystal, 300 μL saline, RPMI-1640 media, 1X PBS or saline with 0.1% SDS; solutions replaced every hour; after 36 hours
Source text: After crystals visibly stopped precipitating or growing, the vessel was submerged in an ultrasonic water bath for 10-30 seconds to dislodge crystals from the vessel sidewall and break them into more a uniform size distributions, either smaller fines, for example 50 μm, or between 150-200 μm, as measured by brightfield and scanning electron microscopy, shown in FIGS. 2A-2B. Resultant product was then removed from the supernatant mother solution, dried, weighed, and stored for later use. On average, yielded crystal was approximately 40% of the starting powder. Furthermore, methods exist to quantify solubilized material, typically using optics to identify changes in light transmittance, and enabled testing of crystal stability in a range of aqueous solutions. To do so, between 1-2 mg of crystal was placed in a 96-well plate with 300 μL of DMSO, saline, RPMI-1640 media, 1X phosphate buffer solution (PBS), or saline with 0.1% sodium dodecyl sulfate (SDS). […] To simulate cumulative drug release over time, all 3 mL supernatant volumes were removed and replaced with completely fresh release media at desired times of 1 hr, 4 hr, 6 hr, 8 hr, 10 hr, 1 day, 2 days, 5 days, 7 days, 10 days and 12 days, and 200 μL aliquots were measured in individual wells of a 96-well plate at 266 nm to determine solubilize sorafenib release, as shown in FIG. 2D.

[2] = tested on: endothelial cell marker Cd31; experiment: qPCR of retrieved tumors: Cd31; type: in vivo, BALB/c mice; settings: crystals, compared to daily liquid bolus drug treatment; tumors at end of study
Method: To determine the anti-angiogenic efficacy of each sorafenib treatment group, qPCR gene expression analysis was performed on retrieved tumors at the conclusion of the study. In particular, analysis for levels of endothelial cell marker Cd31, vascular endothelial-cadherin (VE-Cdh), smooth muscle pericyte marker alpha Smooth Muscle actin (aSMact), and stem/progenitor cell marker Cd34 were conducted, as shown in FIG. 3F.
1 mL of TRIzol reagent (Cat#15596018, ThermoFisher) was added to 100 mg samples of tumor tissue and broken down with a power homogenizer (Polytron/VWR). Homogenized samples were incubated at room temperature for 5 min for complete nucleoprotein dissociation, then 0.2 ml of chloroform (Sigma) was added to each sample. Samples were shaken vigorously for 15 seconds and incubated at room temperature for 3 min before centrifuging at 12,000 g for 15 min at 4° C. The uppermost supernatant layer was pipetted into a 1.7 mL Eppendorf tube, with the remaining interphase and organic layer discarded. 0.5 mL of isopropanol (Sigma) was added to each sample, and then samples were incubated for 10 min. Samples were centrifuged at 12,000 g for 10 min at 4° C. […] Depending on size of resultant pellet, pellets were resuspended in 50-100 μL, and nucleic acid concentration was measured using a NanoDrop 2000 spectrophotometer (ThermoFisher). […]

[3] = tested on: alpha Smooth Muscle actin (aSMact); experiment: immunofluorescent staining of tumors: aSMact; type: in vivo, BALB/c mice; settings: single SC injection of 3 mg or 10 mg crystals, compared to daily bolus
Method: To confirm the effects seen at the level of RNA, immunofluorescent staining of excised tumor samples that were in parallel fixed with paraformaldehyde and embedded in paraffin was performed. […] Co-localization of CD31 with aSMact was, as expected, not linked in crystal sorafenib-treated tumors, where CD31 reduction was more extensive than with daily, bolus sorafenib.
Immunofluorescence imaging was used to determine anti-angiogenic drug efficacy. Tumor tissues were retrieved from mice and fixed overnight using 4% paraformaldehyde at 4° C. After fixation, retrieved tissue samples were moved to 70% ethanol. Samples were then processed for paraffin embedding, sectioning and staining. […] Next, tissues were incubated for 1 hour in an immunostaining cocktail solution consisting of NucBlue (Thermo), specific marker probes (1:200 dilution) anti-CD31 (Cat#DIA-310, HistoBioTec) and anti-alphaSmoothMuscle actin-Cy3 (Sigma) in Dako staining buffer. For CD31, a goat anti-rat alexa-fluor647 secondary antibody was also used (1:400). After staining, samples were rinsed again with 1X PBS three times prior to slides being cover slipped with Pro-long anti-fade Gold (Thermo). […] For stain quantification, images were converted into 8-bit image files, a background threshold was determined using NIH ImageJ, and then all images were processed using an NIH ImageJ macro to quantify the area of positive stain. […]

[4] = crystals collected from vitreous fluid after intravitreal injection; type: in vivo, mouse; settings: collected 2 weeks after injection; compared to larger crystalline sorafenib

For `CNC(=O)c1cc(Oc2ccc(NC(=O)Nc3ccc(Cl)c(C(F)(F)F)c3)cc2)ccn1` [crystalline sorafenib, sorafenib], the “difference in crystal size by brightfield microscopy” value [1] was “no noticeable difference”, the “endothelial cell Cd31 expression levels (qPCR)” value [2] was “more effectively reduced” and the “tumor aSMact levels (immunofluorescence)” value [3] was “reduction is less significant”. The “polymorph and crystal form of crystals recovered from vitreous fluid” value [4] was “identical in polymorph and crystal form”.
